# In patent US7118895B2, “Process for producing aglycon by using diglycosidase and flavor-improved food containing the aglycon and converting agent to be used in the process” (Amano Enzyme Inc., priority 2000, dated 2006):
# System: Crude diglycosidase
# Test: Examination of pH in the conversion into isoflavone aglycons by diglycosidase using soybean materials
# Type: biochemical, Penicillium multicolor IAM7153
# Conditions: for Decomposition efficiency of glycitin family in roasted soy flour / Decomposition efficiency of glycitin family in soymilk: 55° C.
# Summary of the method: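 Soybean materials (roasted soy flour, soymilk, defatted soybean, concentrated soy protein) suspended and adjusted to pH 2–11. Crude diglycosidase added at 1.88 AU/mL enzyme solution and reacted at 55° C. Ethanol-stopped at 0, 1, 3 and 6 h; isoflavone glycosides and aglycons detected by HPLC.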
# [1] = pH6.6, heat treatment of enzyme: no, reaction time 0 h
# [2] = pH6.6, heat treatment of enzyme: no, reaction time 1 h
# [3] = pH6.6, heat treatment of enzyme: no, reaction time 3 h
# [4] = pH6.6, heat treatment of enzyme: no, reaction time 6 h
# [5] = pH6.6, heat treatment of enzyme: yes, reaction time 6 h
compound,measurement,setting,value
"COc1cc2c(=O)c(-c3ccc(O)cc3)coc2cc1O[C@@H]1O[C@H](COC(=O)CC(=O)O)[C@@H](O)[C@H](O)[C@H]1O [malonylglycitin, 6″-O-malonylglycitin]",Decomposition efficiency of glycitin family in defatted soybean,"pH4.8, heat treatment of enzyme: no, reaction time 3 h",37.5%
same,Decomposition efficiency of glycitin family in defatted soybean,"pH4.8, heat treatment of enzyme: no, reaction time 6 h",31.9%
same,Decomposition efficiency of glycitin family in defatted soybean,"pH4.8, heat treatment of enzyme: yes, reaction time 6 h",56.2%
same,Decomposition efficiency of glycitin family in roasted soy flour,"pH5, heat treatment of enzyme no, reaction time 0 h",not detected
same,Decomposition efficiency of glycitin family in roasted soy flour,"pH5, heat treatment of enzyme no, reaction time 1 h",not detected
same,Decomposition efficiency of glycitin family in roasted soy flour,"pH5, heat treatment of enzyme no, reaction time 3 h",not detected
same,Decomposition efficiency of glycitin family in roasted soy flour,"pH5, heat treatment of enzyme no, reaction time 6 h",not detected
same,Decomposition efficiency of glycitin family in roasted soy flour,"pH5, heat treatment of enzyme yes, reaction time 6 h",not detected
same,Decomposition efficiency of glycitin family in concentrated soybean protein,"pH5.1, heat treatment of enzyme: no, reaction time 0 h",0.4%
same,Decomposition efficiency of glycitin family in concentrated soybean protein,"pH5.1, heat treatment of enzyme: no, reaction time 1 h",0.6%
same,Decomposition efficiency of glycitin family in concentrated soybean protein,"pH5.1, heat treatment of enzyme: no, reaction time 3 h",0.6%
same,Decomposition efficiency of glycitin family in concentrated soybean protein,"pH5.1, heat treatment of enzyme: no, reaction time 6 h",0.6%
same,Decomposition efficiency of glycitin family in concentrated soybean protein,"pH5.1, heat treatment of enzyme: yes, reaction time 6 h",0.4%
same,Decomposition efficiency of glycitin family in defatted soybean,"pH5.4, heat treatment of enzyme: no, reaction time 0 h",64.0%
same,Decomposition efficiency of glycitin family in defatted soybean,"pH5.4, heat treatment of enzyme: no, reaction time 1 h",45.1%
same,Decomposition efficiency of glycitin family in defatted soybean,"pH5.4, heat treatment of enzyme: no, reaction time 3 h",100.0%
same,Decomposition efficiency of glycitin family in defatted soybean,"pH5.4, heat treatment of enzyme: no, reaction time 6 h",32.3%
same,Decomposition efficiency of glycitin family in defatted soybean,"pH5.4, heat treatment of enzyme: yes, reaction time 6 h",39.3%
same,Decomposition efficiency of glycitin family in soymilk,"pH6.2, heat treatment of enzyme no, reaction time 0 h",43.2
same,Decomposition efficiency of glycitin family in soymilk,"pH6.2, heat treatment of enzyme no, reaction time 1 h",46.4
same,Decomposition efficiency of glycitin family in soymilk,"pH6.2, heat treatment of enzyme no, reaction time 3 h",34.5
same,Decomposition efficiency of glycitin family in soymilk,"pH6.2, heat treatment of enzyme no, reaction time 6 h",29.6
same,Decomposition efficiency of glycitin family in soymilk,"pH6.2, heat treatment of enzyme yes, reaction time 6 h",37.6
same,Decomposition efficiency of glycitin family in roasted soy flour,"pH6.5, heat treatment of enzyme no, reaction time 0 h",not detected
same,Decomposition efficiency of glycitin family in roasted soy flour,"pH6.5, heat treatment of enzyme no, reaction time 1 h",not detected
same,Decomposition efficiency of glycitin family in roasted soy flour,"pH6.5, heat treatment of enzyme no, reaction time 3 h",not detected
same,Decomposition efficiency of glycitin family in roasted soy flour,"pH6.5, heat treatment of enzyme no, reaction time 6 h",not detected
same,Decomposition efficiency of glycitin family in roasted soy flour,"pH6.5, heat treatment of enzyme yes, reaction time 6 h",not detected
same,Decomposition efficiency of glycitin family in concentrated soybean protein,[1],0.4%
same,Decomposition efficiency of glycitin family in defatted soybean,[1],39.6%
same,Decomposition efficiency of glycitin family in concentrated soybean protein,[2],0.4%
same,Decomposition efficiency of glycitin family in defatted soybean,[2],52.9%
same,Decomposition efficiency of glycitin family in concentrated soybean protein,[3],0.4%
same,Decomposition efficiency of glycitin family in defatted soybean,[3],53.6%
same,Decomposition efficiency of glycitin family in concentrated soybean protein,[4],0.4%
same,Decomposition efficiency of glycitin family in defatted soybean,[4],58.1%
same,Decomposition efficiency of glycitin family in concentrated soybean protein,[5],0.4%
same,Decomposition efficiency of glycitin family in defatted soybean,[5],50.3%
same,Decomposition efficiency of glycitin family in soymilk,"pH7.2, heat treatment of enzyme no, reaction time 0 h",43.9
same,Decomposition efficiency of glycitin family in soymilk,"pH7.2, heat treatment of enzyme no, reaction time 1 h",48.8
same,Decomposition efficiency of glycitin family in soymilk,"pH7.2, heat treatment of enzyme no, reaction time 3 h",46.2
same,Decomposition efficiency of glycitin family in soymilk,"pH7.2, heat treatment of enzyme no, reaction time 6 h",41.6
same,Decomposition efficiency of glycitin family in soymilk,"pH7.2, heat treatment of enzyme yes, reaction time 6 h",37.5
same,Decomposition efficiency of glycitin family in defatted soybean,"pH7.8, heat treatment of enzyme: no, reaction time 0 h",66.8%
same,Decomposition efficiency of glycitin family in defatted soybean,"pH7.8, heat treatment of enzyme: no, reaction time 1 h",57.5%
same,Decomposition efficiency of glycitin family in defatted soybean,"pH7.8, heat treatment of enzyme: no, reaction time 3 h",53.2%
same,Decomposition efficiency of glycitin family in defatted soybean,"pH7.8, heat treatment of enzyme: no, reaction time 6 h",49.1%
same,Decomposition efficiency of glycitin family in defatted soybean,"pH7.8, heat treatment of enzyme: yes, reaction time 6 h",55.8%
same,Decomposition efficiency of glycitin family in roasted soy flour,"pH8.5, heat treatment of enzyme no, reaction time 0 h",not detected
same,Decomposition efficiency of glycitin family in roasted soy flour,"pH8.5, heat treatment of enzyme no, reaction time 1 h",not detected
same,Decomposition efficiency of glycitin family in roasted soy flour,"pH8.5, heat treatment of enzyme no, reaction time 3 h",not detected
same,Decomposition efficiency of glycitin family in roasted soy flour,"pH8.5, heat treatment of enzyme no, reaction time 6 h",not detected
same,Decomposition efficiency of glycitin family in roasted soy flour,"pH8.5, heat treatment of enzyme yes, reaction time 6 h",not detected
same,Decomposition efficiency of glycitin family in concentrated soybean protein,"pH8.6, heat treatment of enzyme: no, reaction time 0 h",0.4%
same,Decomposition efficiency of glycitin family in concentrated soybean protein,"pH8.6, heat treatment of enzyme: no, reaction time 1 h",0.4%
same,Decomposition efficiency of glycitin family in concentrated soybean protein,"pH8.6, heat treatment of enzyme: no, reaction time 3 h",0.4%
same,Decomposition efficiency of glycitin family in concentrated soybean protein,"pH8.6, heat treatment of enzyme: no, reaction time 6 h",0.4%
same,Decomposition efficiency of glycitin family in concentrated soybean protein,"pH8.6, heat treatment of enzyme: yes, reaction time 6 h",0.3%
same,Decomposition efficiency of glycitin family in soymilk,"pH11.6, heat treatment of enzyme no, reaction time 0 h",39.4
same,Decomposition efficiency of glycitin family in soymilk,"pH11.6, heat treatment of enzyme no, reaction time 1 h",50.4
same,Decomposition efficiency of glycitin family in soymilk,"pH11.6, heat treatment of enzyme no, reaction time 3 h",46.5
same,Decomposition efficiency of glycitin family in soymilk,"pH11.6, heat treatment of enzyme no, reaction time 6 h",44.0
same,Decomposition efficiency of glycitin family in soymilk,"pH11.6, heat treatment of enzyme yes, reaction time 6 h",34.4
